Source: ChEMBL document CHEMBL1124325, “Interactions of thiol-containing androgens with human placental aromatase” (J Med Chem, 1989)

Experiments:
[1] = target: T1, Aromatase (Homo sapiens, UniProt P11511); assay: Dithiothreitol ([…]) reactivation of human placental aromatase following 1.0 uM inactivation for 5 minutes; conditions: read-out: Activity remaning
T1 sequence (P11511 whole entry): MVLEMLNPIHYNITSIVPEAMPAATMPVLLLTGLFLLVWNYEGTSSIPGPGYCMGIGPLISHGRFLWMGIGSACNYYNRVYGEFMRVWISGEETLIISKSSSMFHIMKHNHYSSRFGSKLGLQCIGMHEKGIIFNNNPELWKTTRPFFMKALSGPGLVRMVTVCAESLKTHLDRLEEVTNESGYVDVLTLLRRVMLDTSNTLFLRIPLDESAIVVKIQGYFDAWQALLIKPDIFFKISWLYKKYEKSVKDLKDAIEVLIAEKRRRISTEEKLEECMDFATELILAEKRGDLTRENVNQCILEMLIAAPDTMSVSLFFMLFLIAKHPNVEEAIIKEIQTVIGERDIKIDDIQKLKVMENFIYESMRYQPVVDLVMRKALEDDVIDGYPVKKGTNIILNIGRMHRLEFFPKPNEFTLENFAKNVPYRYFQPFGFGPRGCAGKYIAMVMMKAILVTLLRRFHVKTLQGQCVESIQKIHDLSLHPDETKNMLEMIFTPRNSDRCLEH

[2] = target: T1, Aromatase; assay: Binding affinity for formation of reversible enzyme-ligand complexes with human placental aromatase (PL2)
[3] = target: T1, Aromatase; assay: Catalytic constant (Kcat) for reversible enzyme-ligand complex formation with human placental aromatase (PL2)
[4] = target: T1, Aromatase; assay: Maximum absorbance for formation of reversible-enzyme-ligand complexes with human placental aromatase (PL1)
[5] = target: T1, Aromatase; assay: Dithiothreitol ([…]) reactivation of human placental aromatase following 1.0 uM inactivation for 10 minutes; conditions: read-out: Activity remaning
[6] = target: T1, Aromatase; assay: Binding affinity(KI) for formation of reversible enzyme-ligand complex with human placental aromatase (PL2)
[7] = target: T1, Aromatase; assay: Binding affinity constant for formation of reversible enzyme-ligand complex with human placental aromatase (PL1); conditions: read-out: Ks

`C[C@]12CCC(=O)C(O)=C1CCC1C2CC[C@]2(C)C(=O)CCC12.OC(CS)C(O)CS` (stereo not given in full) showed an activity at 1 µM [1] of 41%.

For `C[C@]12CCC3C(CCC4=CC(=O)CC[C@@]43CS)C1CCC2=O.OC(CS)C(O)CS` (stereo not given in full), the activity at 1 µM [1] was 59%.

With `C[C@]12CCC3C(CCC4=CC(=O)CC[C@@]43S)C1CCC2=O.OC(CS)C(O)CS` (stereo not given in full) the activity at 1 µM [1] was 48%.

With `C[C@]12CCC3C(CCC4=CC(=O)CC[C@@]43CS)C1CCC2=O` (stereo not given in full) the Ki [2] was 47 nM, the k cat [3] was 0.0025 and the Activity [4] was 0.179 Amax nM-1. It also gave an activity at 1 µM [1] of 60%.

Work on `C#CC[C@]12CCC(=O)C=C1CCC1C2CC[C@]2(C)C(=O)CCC12.OC(CS)C(O)CS` (stereo not given in full) yielded an activity at 1 µM [5] of 63%.

Work on `C[C@]12C[C@@H](S)C(=O)C=C1CCC1C2CC[C@]2(C)C(=O)CCC12.OC(CS)C(O)CS` (stereo not given in full) yielded an activity at 1 µM [5] of 74%.

`C[C@]12C[C@@H](S)C(=O)C=C1CCC1C2CC[C@]2(C)C(=O)CCC12` (stereo not given in full) was tested, and the Ki [6] was 3100 nM, the k cat [3] was 0.002 and the Activity [4] was 0.169 Amax nM-1. The activity at 1 µM [5] was 75% and the Kd [7] was 602 nM.

With `C[C@]12CCC3C(CCC4=CC(=O)CC[C@@]43S)C1CCC2=O` (stereo not given in full) the Ki [6] was 28 nM, the k cat [3] was 0.0043 and the Activity [4] was 0.187 Amax nM-1. For the same compound, the activity at 1 µM [1] was 50% and the Kd [7] was 144 nM.

For `C[C@]12CCC3C(CCC4=CC(=O)CC[C@@]43S)C1CC[C@@H]2O` (stereo not given in full), the Ki [6] was 100 nM, the k cat [3] was 0.004 and the Activity [4] was 0.167 Amax nM-1. It also gave a Kd [7] of 785 nM.

With `CC12CCC3C(CC=C4CC(=O)CCC43CO)C1CCC2=O` (stereo not given) the Activity [4] was 0.125 Amax nM-1 and the Kd [7] was 368 nM.

For `C[C@]12CCC(=O)C=C1CC[C@@H]1[C@@H]2CC[C@]2(C)C(=O)CC[C@@H]12` [ANDROSTENEDIONE], the Activity [4] was 0.177 Amax nM-1 and the Kd [7] was 105 nM.

In the case of `OC(CS)C(O)CS` (stereo not drawn) [DL-DITHIOTHREITOL], the activity at 1 µM [5] is reported as 84% and the activity at 1 µM [1] is reported as 97%.

`C[C@]12CCC(=O)C(O)=C1CC[C@@H]1[C@@H]2CC[C@]2(C)C(=O)CC[C@@H]12` [FORMESTANE] was tested, and the Ki [6] was 542 nM, the k cat [3] was 0.008 *10e-3 and the Activity [4] was 0.162 Amax nM-1. The activity at 1 µM [1] was 43% and the Kd [7] was 324 nM.

For `C#CC[C@]12CCC(=O)C=C1CC[C@@H]1[C@@H]2CC[C@]2(C)C(=O)CC[C@@H]12` [PLOMESTANE], the Ki [6] was 6.2 nM, the k cat [3] was 0.0007 and the Activity [4] was 0.191 Amax nM-1. The activity at 1 µM [5] was 65% and the Kd [7] was 213 nM.

With `C[C@]12CC[C@H]3[C@@H](CCC4=CC(=O)CC[C@@]43C)[C@@H]1CC[C@@H]2O` [TESTOSTERONE] the Activity [4] was 0.166 Amax nM-1.
